Source: patent publication US4103008A, “7[2(2,3 Dioxopiperazin-1-yl-carbonylamino)substituted 2 phenylacetamido]-3-2'-thiadiazolyl cephalosporanic acid derivatives” (priority 1976, dated 1978)
≈ marks a conversion by molar mass, not a printed value. Where two headings read alike, the source gives them in different places.

Columns and labels:
[1] = tested on: Staphylococcus aureus FDA 209NIH, P-J C-1; assay: In vitro antibacterial activity (MIC); format: cell-based
[2] = tested on: Streptococcus faecalis ATCC 8043; assay: In vitro antibacterial activity (MIC); format: cell-based; details: Enterococcus faecalis, ATCC8043
[3] = tested on: Bacillus substilis ATCC 6633; assay: In vitro antibacterial activity (MIC); format: cell-based; details: ATCC6633
Escherichia coli C 73-1 = assay: In vitro antibacterial activity (MIC); format: cell-based; details: C731
Escherichia coli C 73-4 = assay: In vitro antibacterial activity (MIC); format: cell-based; details: C734
[4] = tested on: Salmonella enteritidis No. 11; assay: In vitro antibacterial activity (MIC); format: cell-based; details: Salmonella enterica
[5] = tested on: Pseudomonas strain C73-83; assay: In vitro antibacterial activity (MIC); format: cell-based; details: C7383
Description: (§1) Given below are the test results of in vitro antibacterial activity studies, serum concentrations and accumulative urinary excretions in rabbits and the protecting effects in mice, of some representative compounds of the invention.
(§2) The compounds used in the tests are shown in the following Table 1, but all of these compounds are in the form of the sodium salt.

[6] = tested on: Salmonella strain C 73-30; assay: In vitro antibacterial activity (MIC); format: cell-based; details: C7330
Description: as §1, §2

Salmonella strain C73-1 = assay: In vitro antibacterial activity (MIC); format: cell-based; details: C731
Description: as §1, §2

[7] = tested on: Shigella dysenteriae shigae; assay: microbe, parasite or virus in culture; format: cell-based
Klebsilla pneumoniae = assay: In vitro antibacterial activity (MIC); format: cell-based
Proteus morganii kono = assay: In vitro antibacterial activity (MIC); format: cell-based; details: Morganella morganii
Proteus morganii C73-23 = assay: In vitro antibacterial activity (MIC); format: cell-based; details: Morganella morganii, C7323
[8] = tested on: Enterobacter strain C73-17; assay: In vitro antibacterial activity (MIC); format: cell-based; details: C7317
Serratia strain No. 1 = assay: In vitro antibacterial activity (MIC); format: cell-based
Serratia strain No. 2 = assay: In vitro antibacterial activity (MIC); format: cell-based
[9] = tested on: Pseudomonas aeruginosa C73-2; assay: In vitro antibacterial activity (MIC); format: cell-based; details: C732
[10] = tested on: Pseudomonas strain C73-63; assay: In vitro antibacterial activity (MIC); format: cell-based; details: C7363
[11] = tested on: Vibrio parahaemolyticus K - 3; assay: In vitro antibacterial activity (MIC); format: cell-based; details: K3
[12] = tested on: Vibrio parahaemolyticus K - 5; assay: In vitro antibacterial activity (MIC); format: cell-based; details: K5
[13] = Serum concentration and accumulative urinary excretion in rabbit; details: in vivo, im; for concentration at 0.5 h: after 30 mins.
Procedure: as §1, §2
Each of the test compounds (20 mg/kg) was intramuscularly administered to one group of 3 rabbits, and the amounts of antibiotics were measured by a conventional method, using Sarcina lutea.

[14] = tested on: Pseudomonas aerugenosa E 2 strain; assay: ED50 in Pseudomonas infection in mice; format: in vivo; details: ICR-JCL mouse, male, 20g; P. aerugenosa E 2 3.6 × 10^4 intraperitoneal; compound intramuscular after 2 hrs.; ED50 after 7 days; sodium salts
Description: as §1, §2
Pseudomonas aerugenosa E 2 strain (3.6 × 10^4) was intraperitonealy injected to each group of 10 of ICR-JCL mouse (male, 20g). After 2 hrs., each of the test compounds was intramuscularly administered to the infected mice and the ED50 values were measured after 7 days.

[15] = 20 mg/kg intramuscular, sodium salts, Sarcina lutea assay
[16] = Pseudomonas aeruginosa C-73-2, read-out: Mic value against Pseudomonas aeruginosa C-73-2
[17] = Staphylococcus aureus FDA 209NIH, P-J C-1, in vitro, sodium salts, read-out: MIC
[18] = Streptococcus faecalis ATCC 8043, in vitro, sodium salts, read-out: MIC
[19] = Bacillus substilis ATCC 6633, in vitro, sodium salts, read-out: MIC
[20] = Escherichia coli C 73-1, in vitro, sodium salts, read-out: MIC
[21] = Escherichia coli C 73-4, in vitro, sodium salts, read-out: MIC
[22] = Salmonella enteritidis No. 11, in vitro, sodium salts, read-out: MIC
[23] = Pseudomonas strain C73-83, in vitro, sodium salts, read-out: MIC
[24] = Salmonella strain C 73-30, in vitro, sodium salts, read-out: MIC
[25] = Salmonella strain C73-1, in vitro, sodium salts, read-out: MIC
[26] = Klebsilla pneumoniae, in vitro, sodium salts, read-out: MIC
[27] = Proteus morganii kono, in vitro, sodium salts, read-out: MIC
[28] = Proteus morganii C73-23, in vitro, sodium salts, read-out: MIC
[29] = Enterobacter strain C73-17, in vitro, sodium salts, read-out: MIC
[30] = Serratia strain No. 1, in vitro, sodium salts, read-out: MIC
[31] = Serratia strain No. 2, in vitro, sodium salts, read-out: MIC
[32] = Pseudomonas aeruginosa C73-2, in vitro, sodium salts, read-out: MIC
[33] = Pseudomonas strain C73-63, in vitro, sodium salts, read-out: MIC
[34] = Vibrio parahaemolyticus K - 3, in vitro, sodium salts, read-out: MIC
[35] = Vibrio parahaemolyticus K - 5, in vitro, sodium salts, read-out: MIC

Row | SMILES | MIC (Escherichia coli C 73-1; Escherichia coli) [µg/mL] | MIC (Escherichia coli C 73-4; Escherichia coli) [µg/mL] | MIC [7] [µg/mL] | MIC (Klebsilla pneumoniae) [µg/mL] | MIC (Serratia strain No. 1; Serratia, NO.1) [µg/mL] | MIC (Serratia strain No. 2; Serratia, NO.2) [µg/mL] | ED50 in Pseudomonas infection in mice [14] [mg/mouse] | MIC [1, 17] [µg/mL] | MIC [2, 18] [µg/mL] | MIC [3, 19] [µg/mL] | MIC [4, 22] [µg/mL] | MIC [5, 23] [µg/mL] | MIC [6, 24] [µg/mL] | MIC (Salmonella strain C73-1; [25]) [µg/mL] | MIC (Proteus morganii kono; [27]) [µg/mL] | MIC (Proteus morganii C73-23; [28]) [µg/mL] | MIC [8, 29] [µg/mL] | MIC [9, 32] [µg/mL] | MIC [10, 33] [µg/mL] | MIC [12, 35] [µg/mL] | other results
1 | CCN1CCN(C(=O)N[C@@H](C(=O)NC2C(=O)N3C(C(=O)[O-])=C(CSc4nncs4)CS[C@H]23)c2ccc(O)cc2)C(=O)C1=O.[Na+] (single isomer, unassigned) | 1.56 | 0.39 | < 0.05 | 0.1 | 3.13 | 3.13 | 3.0 | – | – | – | – | – | – | – | – | – | – | – | – | – | MIC ([1]; Staphylococcus aureus): 0.39 µg/mL; MIC [2]: 0.78 µg/mL; MIC ([3]; Bacillus): 0.78 µg/mL; MIC ([4]; ENTERITIDIS): < 0.05 µg/mL; MIC ([5]; Pseudomonas): 25 µg/mL; MIC ([6]; Salmonella): 0.39 µg/mL; MIC (Salmonella strain C73-1; Salmonella): 0.39 µg/mL; MIC (Proteus morganii kono): 1.56 µg/mL; MIC (Proteus morganii C73-23): 6.25 µg/mL; MIC ([8]; Enterobacter): 25 µg/mL; MIC ([9]; Pseudomonas aeruginosa): 6.25 µg/mL; MIC ([10]; Pseudomonas): 1.56 µg/mL; MIC ([11]; Vibrio parahaemolyticus): 6.25 µg/mL; MIC ([12]; Vibrio parahaemolyticus): 6.25 µg/mL; concentration at 0.5 h [13, 15]: 52.8 µg/mL; dose excreted at 6 h ([13]; 20 mg/kg intramuscular, after 6 hrs., sodium salts, Sarcina lutea assay, read-out: ACCUMULATIVE URINARY EXCRETION): 33.4%
2 | CCN1CCN(C(=O)N[C@@H](C(=O)NC2C(=O)N3C(C(=O)O)=C(CSc4nnc(C)s4)CSC23)c2ccc(O)c(Cl)c2)C(=O)C1=O (single isomer, unassigned) [Example 7] | – | – | – | – | – | – | – | – | – | – | – | – | – | – | – | – | – | – | – | – | MIC [9, 16]: 12.5 µg/mL (≈ 18 µM)
3 | CCN1CCN(C(=O)N[C@@H](C(=O)NC2C(=O)N3C(C(=O)O)=C(CSc4nnc(C)s4)CS[C@H]23)c2ccc(O)cc2)C(=O)C1=O (single isomer, unassigned) [Example 8, 7-[D(-)-α-(4-ethyl-2,3-dioxopiperazin-1-yl-carbonylamino)-p-hydroxyphenylacetamido]-3-(5-methyl-1,3,4-thiadiazol-2-yl-thiomethyl)-3-cephem-4-carboxylic acid] | – | – | – | – | – | – | – | – | – | – | – | – | – | – | – | – | – | – | – | – | MIC [9, 16]: 25 µg/mL (≈ 37.8 µM)
4 | CCN1CCN(C(=O)N[C@@H](C(=O)NC2C(=O)N3C(C(=O)O)=C(CSc4nncs4)CS[C@H]23)c2ccc(O)c(Cl)c2)C(=O)C1=O (single isomer, unassigned) [II, 7-[D(-)-α-(4-ethyl-2,3-dioxopiperazin-1-yl-carbonylamino)-m-chloro-p-hydroxyphenylacetamido]-3-(1,3,4-thiadiazol-2-yl-thiomethyl)-3-cephem-4-carboxylic acid] | – | – | < 0.05 | – | – | – | 2.2 | 0.2 | 1.56 | 0.39 | < 0.05 | 12.5 | 1.56 | 0.78 | 3.13 | 6.25 | 12.5 | 6.25 | 1.56 | 12.5 | MIC (Escherichia coli C 73-1; [20]): 1.56 µg/mL; MIC (Escherichia coli C 73-4; [21]): 1.56 µg/mL; MIC (Klebsilla pneumoniae; [26]): 0.78 µg/mL; MIC (Serratia strain No. 1; [30]): 3.13 µg/mL; MIC (Serratia strain No. 2; [31]): 6.25 µg/mL; MIC [11, 34]: 12.5 µg/mL; dose excreted at 6 h ([13]; 20 mg/kg): 24%; concentration at 0.5 h [13, 15]: 28.8 µg/mL
5 | CCN1CCN(C(=O)N[C@@H](C(=O)NC2C(=O)N3C(C(=O)O)=C(CSc4nncs4)CS[C@H]23)c2ccc(OC(C)=O)cc2)C(=O)C1=O (single isomer, unassigned) [III, 7-[D(-)-α-(4-ethyl-2,3-dioxopiperazin-1-yl-carbonylamino)-p-acetoxyphenylacetamido]-3-(1,3,4-thiadiazol-2-yl-thiomethyl)-3-cephem-4-carboxylic acid] | – | – | 0.78 (≈ 1.13 µM) | – | – | – | 2.6 | 12.5 | 1.56 | 12.5 | 1.56 | 25 | 0.78 | 0.78 | 6.25 | 12.5 | 25 | 1.56 | 6.25 | 6.25 | MIC (Escherichia coli C 73-1; [20]): 3.13 µg/mL; MIC (Escherichia coli C 73-4; [21]): 3.13 µg/mL; MIC (Klebsilla pneumoniae; [26]): 0.78 µg/mL; MIC (Serratia strain No. 1; [30]): 6.25 µg/mL; MIC (Serratia strain No. 2; [31]): 1.56 µg/mL; MIC [11, 34]: 6.25 µg/mL; dose excreted at 6 h ([13]; 20 mg/kg): 48%; concentration at 0.5 h [13, 15]: 62 µg/mL
6 | CCN1CCN(C(=O)N[C@@H](C(=O)N[C@@H]2C(=O)N3[C@@H]2SC(C)(C)[C@@H]3C(=O)O)c2ccccc2)C(=O)C1=O [C, sodium 6-[D(-)-α-(4-ethyl-2,3-dioxopiperazin-1-yl-carbonylamino)phenylacetamido]penicillanate, reference compound] | 3.13 | 6.25 | 0.2 | 3.13 | 3.13 | 3.13 | – | 0.78 | 12.5 | 0.39 | < 0.05 | 50 | 6.25 | 6.25 | 0.78 | – | – | – | – | 12.5 | MIC (Proteus morganii C73-23): 3.13 µg/mL; MIC ([8]; Enterobacter): 6.25 µg/mL; MIC ([9]; Pseudomonas aeruginosa): 6.25 µg/mL; MIC ([10]; Pseudomonas): 3.13 µg/mL; MIC [11, 34]: 25 µg/mL
7 | CC1(C)S[C@@H]2[C@H](NC(=O)C(C(=O)O)c3ccccc3)C(=O)N2[C@H]1C(=O)O (some centres unmarked) [CB-PC, sodium carbenicillin, reference compound] | – | 6.25 | 0.78 | 6.25 | 3.13 | 3.13 | 8.1 | 0.2 | – | < 0.05 | 0.39 | > 100 | 6.25 | 6.25 | 0.39 | 1.56 | 25 | 25 | – | > 100 | MIC [2]: 6.25 µg/mL; MIC (Escherichia coli C 73-1; [20]): > 100 µg/mL; MIC ([10]; Pseudomonas): 12.5 µg/mL; MIC [11, 34]: > 100 µg/mL
8 | CC1=C(C(=O)O)N2C(=O)[C@@H](NC(=O)[C@H](N)c3ccccc3)[C@H]2SC1 [CEX, sodium cephalexin, reference compound] | 25 | 6.25 | 1.56 | 3.13 | > 100 | > 100 | – | – | – | – | – | > 100 | 3.13 | 3.13 | – | – | – | – | > 100 | – | MIC ([1]; Staphylococcus aureus): 0.78 µg/mL; MIC [2]: 50 µg/mL; MIC ([3]; Bacillus): 0.39 µg/mL; MIC ([4]; ENTERITIDIS): 3.13 µg/mL; MIC (Proteus morganii kono): > 100 µg/mL; MIC (Proteus morganii C73-23): > 100 µg/mL; MIC ([8]; Enterobacter): 100 µg/mL; MIC ([9]; Pseudomonas aeruginosa): > 100 µg/mL; MIC ([11]; Vibrio parahaemolyticus): 6.25 µg/mL; MIC ([12]; Vibrio parahaemolyticus): 50 µg/mL
9 | Cc1nnc(SCC2=C(C(=O)O)N3C(=O)[C@@H](NC(=O)Cn4cnnn4)[C@H]3SC2)s1 [CEZ, sodium cefazolin, reference compound] | 3.13 | – | 0.78 | – | – | – | – | < 0.05 | 2.5 | < 0.05 | 0.78 | > 100 | 0.78 | 0.78 | > 100 | > 100 | 25 | > 100 | > 100 | 12.5 | MIC (Escherichia coli C 73-4; [21]): 0.78 µg/mL; MIC (Klebsilla pneumoniae; [26]): 0.78 µg/mL; MIC (Serratia strain No. 1; [30]): > 100 µg/mL; MIC (Serratia strain No. 2; [31]): > 100 µg/mL; MIC ([11]; Vibrio parahaemolyticus): 1.56 µg/mL
